Assay results taken from ChEMBL document CHEMBL1143809, “New bis-N9-(methylphenylmethyl)purine derivatives: synthesis and antitumor activity” (2007).

Assays:
Assay type in all cases: functional
NCI/ADR-RES = test: Growth inhibition of human NCI/ADR-RES cells after 48 hrs by SRB protein assay
SNB-75 = test: Growth inhibition of human SNB75 cells after 48 hrs by SRB protein assay; details: SNB-75, 48 h
RXF 393 = test: Growth inhibition of human RXF393 cells after 48 hrs by SRB protein assay; details: RXF 393, 48 h
OVCAR-5 = test: Growth inhibition of human OVCAR5 cells after 48 hrs by SRB protein assay; details: OVCAR-5, 48 h
HOP-92 = test: Growth inhibition of human HOP92 cells after 48 hrs by SRB protein assay; details: HOP-92, 48 h
IGROV-1 = test: Growth inhibition of human IGROV1 cells after 48 hrs by SRB protein assay; details: IGROV-1, 48 h
HCC 2998 = test: Growth inhibition of human HCC2998 cells after 48 hrs by SRB protein assay; details: HCC 2998, 48 h
SF-295 = test: Growth inhibition of human SF295 cells after 48 hrs by SRB protein assay; details: SF-295, 48 h
SW-620 = test: Growth inhibition of human SW620 cells after 48 hrs by SRB protein assay; details: SW-620, 48 h
CCRF-CEM = test: Growth inhibition of human CCRF-CEM cells after 48 hrs by SRB protein assay
MDA-MB-435 = test: Growth inhibition of human MDA-MB-435 cells after 48 hrs by SRB protein assay; details: MDA-MB-435, 48 h
RPMI-8226 = test: Growth inhibition of human RPMI8226 cells after 48 hrs by SRB protein assay; details: RPMI-8226, 48 h
SK-MEL-2 = test: Growth inhibition of human SK-MEL-2 cells after 48 hrs by SRB protein assay; details: SK-MEL-2, 48 h
A498 = test: Growth inhibition of human A498 cells after 48 hrs by SRB protein assay; details: A498, 48 h
OVCAR-3 = test: Growth inhibition of human OVCAR-3 cells after 48 hrs by SRB protein assay; details: OVCAR-3, 48 h
OVCAR-4 = test: Growth inhibition of human OVCAR4 cells after 48 hrs by SRB protein assay; details: OVCAR-4, 48 h
Hs-578T = test: Growth inhibition of human HS578T cells after 48 hrs by SRB protein assay
SF-268 = test: Growth inhibition of human SF268 cells after 48 hrs by SRB protein assay; details: SF-268, 48 h
NCI-H460 = test: Anticancer activity against human NCL-H460 cells assessed as growth at 100 uM after 48 hrs by SRB protein assay relative to control; details: NCI-H460, 48 h, read-out: Activity
SK-MEL-28 = test: Growth inhibition of human SK-MEL-28 cells after 48 hrs by SRB protein assay; details: SK-MEL-28, 48 h
HCT-116 = test: Growth inhibition of human HCT116 cells after 48 hrs by SRB protein assay; details: HCT-116, 48 h
COLO 205 = test: Growth inhibition of human COLO205 cells after 48 hrs by SRB protein assay; details: COLO 205, 48 h
ACHN = test: Growth inhibition of human ACHN cells after 48 hrs by SRB protein assay
UO-31 = test: Growth inhibition of human UO31 cells after 48 hrs by SRB protein assay; details: UO-31, 48 h
[1] = read-out: LC50 (the source's name)

Question: How did the GI50 (NCI/ADR-RES) turn out when Clc1nc(Cl)c2ncn(Cc3ccc(Cn4cnc5c(Cl)nc(Cl)nc54)cc3)c2n1 was run?
Answer: 13.8 µM

Question: And the LC50 (NCI/ADR-RES)?
Answer: 60.2 µM

Question: And the TGI (NCI/ADR-RES)?
Answer: 28.8 µM

Question: What about the GI50 (SNB-75) of the same molecule?
Answer: < 0.01 µM

Question: And the TGI (SNB-75)?
Answer: 17 µM

Question: And the CC50 (SNB-75; [1])?
Answer: 41.7 µM

Question: And the GI50 (RXF 393)?
Answer: < 0.01 µM

Question: What about the CC50 (RXF 393; [1]) of the same molecule?
Answer: 20.9 µM

Question: And the TGI (OVCAR-5)?
Answer: 26.3 µM

Question: And the CC50 (OVCAR-5; [1])?
Answer: 51.3 µM

Question: What about the LC50 (HOP-92) of the same molecule?
Answer: 57.5 µM

Question: What about the TGI (HOP-92) of the same molecule?
Answer: 26.3 µM

Question: What about the GI50 (IGROV-1) of the same molecule?
Answer: 12.9 µM

Question: And the LC50 (50% lethal concentration) (IGROV-1)?
Answer: 50.1 µM

Question: What about the TGI (IGROV-1) of the same molecule?
Answer: 25.1 µM

Question: And the LC50 (HCC 2998)?
Answer: 50.1 µM

Question: What about the TGI (HCC 2998) of the same molecule?
Answer: 25.1 µM

Question: What about the GI50 (SF-295) of the same molecule?
Answer: 19.1 µM

Question: What about the LC50 (SF-295) of the same molecule?
Answer: 85.1 µM

Question: What about the TGI (SF-295) of the same molecule?
Answer: 40.7 µM

Question: What about the GI50 (SW-620) of the same molecule?
Answer: < 0.01 µM

Question: What about the TGI (SW-620) of the same molecule?
Answer: 2.63 µM

Question: What about the CC50 (SW-620; [1]) of the same molecule?
Answer: 8.31 µM

Question: What about the GI50 (CCRF-CEM) of the same molecule?
Answer: 10.2 µM

Question: What about the TGI (CCRF-CEM) of the same molecule?
Answer: 22.9 µM

Question: What about the CC50 (CCRF-CEM; [1]) of the same molecule?
Answer: 51.3 µM

Question: And the GI50 (MDA-MB-435)?
Answer: 16.6 µM

Question: What about the LC50 (MDA-MB-435) of the same molecule?
Answer: 61.7 µM

Question: And the TGI (MDA-MB-435)?
Answer: 31.6 µM

Question: What about the GI50 (RPMI-8226) of the same molecule?
Answer: 6.45 µM

Question: What about the TGI (RPMI-8226) of the same molecule?
Answer: 25.1 µM

Question: What about the CC50 (RPMI-8226; [1]) of the same molecule?
Answer: 75.9 µM

Question: And the TGI (SK-MEL-2)?
Answer: 23.4 µM

Question: And the CC50 (SK-MEL-2; [1])?
Answer: 49 µM

Question: And the TGI (A498)?
Answer: 22.9 µM

Question: And the CC50 (A498; [1])?
Answer: 47.9 µM

Question: And the GI50 (OVCAR-3)?
Answer: 13.5 µM

Question: And the LC50 (OVCAR-3)?
Answer: 51.3 µM

Question: What about the TGI (OVCAR-3) of the same molecule?
Answer: 26.3 µM

Question: What about the GI50 (OVCAR-4) of the same molecule?
Answer: 14.3 µM

Question: What about the LC50 (OVCAR-4) of the same molecule?
Answer: 52.5 µM

Question: And the TGI (OVCAR-4)?
Answer: 27.5 µM

Question: What about the GI50 (Hs-578T) of the same molecule?
Answer: < 0.01 µM

Question: What about the LC50 (concentration killing 50% of cells) (Hs-578T) of the same molecule?
Answer: 43.6 µM

Question: What about the TGI (Hs-578T) of the same molecule?
Answer: 16.2 µM

Question: And the GI50 (SF-268)?
Answer: 15.5 µM

Question: And the LC50 (SF-268)?
Answer: > 100 µM

Question: And the TGI (SF-268)?
Answer: 38.9 µM

Question: And the growth at 100 µM (NCI-H460)?
Answer: 0%

Question: What about the GI50 (SK-MEL-28) of the same molecule?
Answer: < 0.01 µM

Question: What about the LC50 (SK-MEL-28) of the same molecule?
Answer: 42.6 µM

Question: And the TGI (SK-MEL-28)?
Answer: 18.2 µM

Question: What about the GI50 (HCT-116) of the same molecule?
Answer: 9.33 µM

Question: What about the TGI (HCT-116) of the same molecule?
Answer: 21.4 µM

Question: What about the CC50 (HCT-116; [1]) of the same molecule?
Answer: 46.8 µM

Question: What about the LC50 (COLO 205) of the same molecule?
Answer: 41.7 µM

Question: What about the TGI (COLO 205) of the same molecule?
Answer: 17.4 µM

Question: And the GI50 (ACHN)?
Answer: 12.6 µM

Question: What about the LC50 (ACHN) of the same molecule?
Answer: 50.1 µM

Question: And the TGI (ACHN)?
Answer: 25.1 µM

Question: And the GI50 (UO-31)?
Answer: 10 µM

Question: And the LC50 (UO-31)?
Answer: 46.8 µM

Question: What about the TGI (UO-31) of the same molecule?
Answer: 21.4 µM
